According to patent US20080064027A1, “TEL/Etv6-mediated inhibition of cell proliferation” (priority 2002, published 2008):

What was measured:
TEL [1] = test: TEL expression in human cancer cell lines; type: cell-based
Text: TEL is usually expressed as two protein isoforms corresponding to initiation of TEL mRNA translation at ATG codon 1 and 43 (TEL and TEL43). […] To ascertain if TEL is a natural target of Stat3, we examined its expression in human cancer cell lines in response to OSM or IL-6. […] However, TEL expression was unchanged in other cell lines, including the prostate cancer cells PC3 and LNCaP and MDA-MB-468 breast cancer cells, even though it was expected that Stat3 is activated in each of these cell lines by IL-6/OSM treatment.

Stat3 = test: TEL-Stat3 interaction, immunoprecipitation from nuclear extracts; type: binding
Method: Since the TEL DNA-binding domain is not required for repression of Stat3 activity, this Example tests the possibility that TEL interacts directly with Stat3. Extracts from nuclear-enriched fractions were prepared from control or OSM-stimulated A375 cells. […] Endogenous TEL was present in Stat3 immunoprecipitates and the levels of TEL associating with Stat3 increased in OSM-treated compared to control-treated nuclear extracts. Conversely, Stat3 is present in a TEL-containing complex, pulled down through an immobilized GGM-containing oligonucleotide, which is a binding site for TEL.

Stat3-ER = target: T1, Stat3-ER (UniProt P19785+P40763, G525R); test: Stat3 oligonucleotide DNA binding assay on nuclear extracts; type: cell-based
T1 construct: expressed in transfected cells
T1 sequence (P40763+P19785 fused P19785:G525R): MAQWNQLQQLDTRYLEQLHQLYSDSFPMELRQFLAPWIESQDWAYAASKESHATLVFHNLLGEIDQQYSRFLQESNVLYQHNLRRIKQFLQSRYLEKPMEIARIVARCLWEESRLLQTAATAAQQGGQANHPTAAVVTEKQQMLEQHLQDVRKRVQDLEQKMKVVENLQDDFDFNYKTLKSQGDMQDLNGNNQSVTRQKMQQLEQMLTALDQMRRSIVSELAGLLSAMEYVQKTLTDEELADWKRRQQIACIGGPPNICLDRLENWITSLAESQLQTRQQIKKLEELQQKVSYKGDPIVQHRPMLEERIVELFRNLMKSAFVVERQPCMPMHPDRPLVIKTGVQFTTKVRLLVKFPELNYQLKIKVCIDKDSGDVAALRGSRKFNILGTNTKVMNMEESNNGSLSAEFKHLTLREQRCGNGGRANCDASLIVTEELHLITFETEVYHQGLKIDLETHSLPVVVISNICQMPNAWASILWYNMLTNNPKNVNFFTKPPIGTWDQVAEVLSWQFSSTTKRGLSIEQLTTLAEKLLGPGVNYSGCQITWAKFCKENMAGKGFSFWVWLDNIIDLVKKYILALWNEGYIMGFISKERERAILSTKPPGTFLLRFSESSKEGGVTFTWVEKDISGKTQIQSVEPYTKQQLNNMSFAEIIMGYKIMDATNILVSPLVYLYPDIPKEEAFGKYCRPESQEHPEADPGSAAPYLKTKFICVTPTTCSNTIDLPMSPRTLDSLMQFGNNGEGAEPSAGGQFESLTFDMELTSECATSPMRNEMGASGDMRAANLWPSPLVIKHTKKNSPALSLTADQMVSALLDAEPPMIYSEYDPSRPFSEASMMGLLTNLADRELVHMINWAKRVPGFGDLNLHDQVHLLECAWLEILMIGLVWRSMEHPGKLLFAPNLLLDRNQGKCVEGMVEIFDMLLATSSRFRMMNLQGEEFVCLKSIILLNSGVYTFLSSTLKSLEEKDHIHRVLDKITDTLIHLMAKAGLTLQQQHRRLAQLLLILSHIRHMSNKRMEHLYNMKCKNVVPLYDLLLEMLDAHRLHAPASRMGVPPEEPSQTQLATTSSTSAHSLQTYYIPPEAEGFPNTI
Method: DNA binding assays were carried out using cells stimulated with 4HT (1 microM) for 0, 0.3, 1, 2, 4 and 24 hours. […] Samples were centrifuged and the pellet was washed two more times with binding buffer. Proteins were eluted from beads by boiling in 25 microliters of 2× loading buffer (1% DTT, 4% SDS, 20% Glycerol, 0.02% Bromophenol Blue, 0.25 M TrisHCl 1M 6.8 pH) and SDS-PAGE was performed.
DNA binding of Stat3-ER and endogenous Stat3 was monitored by performing Western analysis on the oligonucleotide-bound proteins.

C/EBPdelta mRNA = test: C/EBPdelta expression (quantitative PCR); type: cell-based; details: quantitative PCR
Method: A LacZ siRNA was used as control. The designed RNA oligonucleotides were ‘blasted’ against the GENBANK/EMBL databank to ensure gene specificity. The RNA oligonucleotides were obtained commercially. Transfection with expression vectors was carried out 1 day after the siRNA transfection using Effectene.

TEL [2] = test: TEL protein level by Western blotting; type: cell-based; details: for TEL isoforms (TEL and TEL43) expression: ASER cells
Method: Protein analysis was carried out by Western blotting. In brief, cells were harvested in NP40 extraction buffer (50 mM Tris (pH 7.5), 1 mM EGTA, 5 mM EDTA, 120 mM NaCl, 1% NP40, 2 mM sodium orthovanadate, 50 mM sodium fluoride, 20 mM ? -glycerophosphate, 10 μg/ml leupeptin, 10 μg/ml aprotinin, and 0.5 mM phenylmethylsulfonyl fluoride) for 5 min on ice. The lysates were clarified by centrifugation and protein concentrations were determined using the Bio-Rad protein assay reagent (Bio-Rad Laboratories Gmbh, Munich, Germany). For immunoprecipitaton, equal amounts of proteins were incubated with Stat3 (C-20) from Santa Cruz Biotechnology (Santa Cruz, Calif.) for 1 hr. Following SDS-polyacrylamide gel eletrophoresis (SDS-PAGE), proteins were blotted onto polyvinylidene difluoride membranes (Boehringer Mannheim, Mannheim, Germany). After blocking with 10% horse serum (Life Technologies, Inc.) in 50 mM Tris pH 7.5, 150 mM NaCl, 0.05% Tween 20, filters were probed with specific antibodies; c-TEL, Stat3 (C-20) from Santa Cruz Biotechnology (Santa Cruz, Calif.), phospho-Stat3 (Tyr 705) from Cell Signaling Technology (Beverly, Mass.). Proteins were visualized with peroxidase-coupled secondary antibodies using the enhanced chemiluminescence detection system (Amersham Pharmacia Biotech, Little Chalfont, United Kingdom).

parent A375 cells = test: Proliferation of parent A375 cells; details: 4HT 1 microM
[3] = nuclear lysates of OSM-stimulated A375 cells

Molecule | TEL expression (TEL [1]; PC3, LNCaP prostate cancer cells and MDA-MB-468 breast cancer cells) | TEL expression (TEL [1]; T47D and SKBr-3 breast cancer cells, DU145 prostate carcinoma cells, HepG2 hepatoma-derived cells) | levels of TEL associating with Stat3 in Stat3 immunoprecipitates (Stat3; OSM-treated compared to control-treated nuclear extracts) | nuclear Stat3 levels (Stat3; [3]) | nuclear content of TEL (Stat3; [3]) | endogenous Stat3 DNA binding after OSM addition (Stat3-ER; cells pretreated with 4HT for 24 hrs) | Stat3-ER DNA binding in the presence of OSM (Stat3-ER; cells pretreated with 4HT for 24 hrs, remained bound for the entire course) | C/EBPdelta mRNA (C/EBPdelta mRNA) | TEL protein level upon treatment (TEL [2]; Stat3-ER-expressing A375 cells) | TEL isoforms (TEL and TEL43) expression (TEL [2]; after 24 hrs of treatment) | TEL isoforms (TEL and TEL43) expression (TEL [2]; within 8 hrs of 4HT addition) | proliferation of the parent A375 cells (parent A375 cells) | earliest time at which Stat3ER-DNA binding was detected after stimulation (Stat3-ER; 4HT 1 microM) | time of maximum measured Stat3ER-DNA binding (Stat3-ER; 4HT 1 microM) | Stat3-ER nuclear translocation and DNA binding to Stat3-specific oligonucleotide probe (Stat3-ER; 4HT 1 microM, Stat3-ER-expressing A375 cells)
oncostatin M [OSM] | unchanged | significantly increased | increased | expected increase in Stat3 levels | not affected | could be detected 15 min after addition of OSM and decreased after 1 hr of treatment | enhanced | – | – | – | – | – | – | – | –
CCC(=C(c1ccc(O)cc1)c1ccc(OCCN(C)C)cc1)c1ccccc1 [4HT, 4-hydroxytamoxifen, reference compound] | – | – | – | – | – | – | – | significantly increased | strongly increased | strongly increased | significantly increased | does not affect proliferation | 20 min | 24 h | induced nuclear translocation and DNA-binding
